Assay results from patent EP0472573B1, “HERBICIDE RESISTANT MAIZE” (ZENECA LIMITED, priority 1989, dated 1990).
Where two headings read alike, the source gives them in different places.

Assays:
Assay type in all cases: biochemical, Zea mays
[1] = molecular target: ALS enzyme extracted from Mutant 8 (heterozygous); assay: ALS enzyme assay, heterozygous Mutant 8; details: for IC50: ALS of heterozygous Mutant 8, read-out: ID50% (the source's name); for resistance group, Enzyme Assay: Mutant 8, groups Strong, Intermediate, Weak, Zero; for Fold Increase: fold increase in resistance vs wild type, heterozygous Mutant 8, 30 min
Experimental: (§1) Seeds of generation M₁BC₁ M₁BC₂ of the nine mutants were sprayed pre-emergence with the herbicide imazethapyr (PURSUIT) (Trade Mark) at a rate of 250 g/ha and grown in a growth chamber (16 hour day, 27°C; 8 hour night, 17°C). Plants were harvested after 11 days.
(§2) Four grams of leaf material were harvested from just above the first leaf axis and ground in a mortar and pestle in 20ml of a solution containing 40mM Tricine (Trade Mark), 10mM EDTA, 5mM pyruvate, 80 »M flavin adenine dinucleotide (FAD), 1mM dithiothreitol (DTT), pH 8, plus 0.8g Polyclar AT. The homogenate was pressed through four layers of muslin and centrifuged at 30,000g for 20 minutes.
(§3) The supernatant was brought to 65% saturation with ammonium sulphate, left to precipitate for 30 minutes and then centrifuged at 30.000g for 20 minutes. The pellet was resuspended in 2.5ml of 40mM Tricine, 10mM EDTA, 5mM pyruvate, 80»M FAD, 25% (v/v) glycerol, 1mM DTT, pH 8, and desalted into 3.5ml of 40mM Tricine, 10mM EDTA, 25% (v/v) glycerol, 1mM DTT, pH 8.
(§4) One hundred microlitres of the enzyme extract was used for each assay. Final reagent concentrations were: 120mM Tricine, 50mM pyruvate, 10mM MgCl₂, […], 93»M thiamine pyrophosphate (TPP), pH 8, in the presence or absence of a herbicide of interest, in a volume of 750 »l. Incubations were carried out at 37°C for 30 minutes. Reactions were stopped with 250»l of 1.84M sulphuric acid, and decarboxylation of the acetolactate carried out at 37°C for 75 minutes, or at 60°C for 30 minutes. Assay blanks had sulphuric acid added prior to the enzyme extract. To the samples and blanks 650»l of α-naphthol in 2.73M NaOH/0.16%(w/v) creatine were added followed by incubation at 37°C for 30 minutes. After centrifugation at 30,000g the optical density of the supernatant was read at 540nm.
(§5) The assay procedure described was carried out on ALS enzyme extracted from each of the nine mutants for the following herbicides: imazethapyr (PURSUIT) imazapyr (ARSENAL) imazaquin (SCEPTER) chlorsulfuron (GLEAN) chlorimuron (CLASSIC) […] (HARMONY) The enzyme activity graphs are given as Figures 3 to 8. In addition, homozygous lines of mutants 1 and 2 which were selected from generation M₁BC₁S₂, were also tested against the same group of herbicides and against representatives of the triazolopyrimidines and phenoxypyrimidines. The chemical structures of these herbicides are shown in Figure 2 of the accompanying drawings.
(§6) From the enzyme assay data it is possible to derive, as a measure of the degree of inhibition the factor ID50% for each mutant and for each herbicide. This factor is indicative of the herbicide concentration which gives 50% inhibition of the ALS activity in comparison with the wild-type control. It is also possible to derive the fold increase in resistance.

[2] = molecular target: ALS enzyme extracted from Mutant 3 (heterozygous); assay: ALS enzyme assay, heterozygous Mutant 3; details: for IC50: ALS of heterozygous Mutant 3, read-out: ID50% (the source's name); for resistance group, Enzyme Assay: Mutant 3, groups Strong, Intermediate, Weak, Zero; for Fold Increase: fold increase in resistance vs wild type, heterozygous Mutant 3, 30 min
Experimental: as §1, §2, §3, §4, §5, §6

[3] = molecular target: ALS enzyme extracted from Mutant 5 (heterozygous); assay: ALS enzyme assay, heterozygous Mutant 5; details: for IC50: ALS of heterozygous Mutant 5, read-out: ID50% (the source's name); for resistance group, Enzyme Assay: Mutant 5, groups Strong, Intermediate, Weak, Zero; for Fold Increase: fold increase in resistance vs wild type, heterozygous Mutant 5, 30 min
Experimental: as §1, §2, §3, §4, §5, §6

[4] = molecular target: ALS enzyme extracted from Mutant 9 (heterozygous); assay: ALS enzyme assay, heterozygous Mutant 9; details: for IC50: ALS of heterozygous Mutant 9, read-out: ID50% (the source's name); for resistance group, Enzyme Assay: Mutant 9, groups Strong, Intermediate, Weak, Zero; for Fold Increase: fold increase in resistance vs wild type, heterozygous Mutant 9, 30 min
Experimental: as §1, §2, §3, §4, §5, §6

[5] = molecular target: ALS extracted from leaves of MUTANT 1 (homozygous); assay: ALS enzyme assay, homozygous Mutant 1; details: for IC50: ALS of homozygous Mutant 1, read-out: ID50% Mutant; for Fold Increase: fold increase in resistance vs wild type, homozygous Mutant 1
Experimental: as §2, §3, §4, §5, §6

[6] = molecular target: ALS enzyme extracted from Mutant 6 (heterozygous); assay: ALS enzyme assay, heterozygous Mutant 6; details: for IC50: ALS of heterozygous Mutant 6, read-out: ID50% (the source's name); for resistance group, Enzyme Assay: Mutant 6, groups Strong, Intermediate, Weak, Zero; for Fold Increase: fold increase in resistance vs wild type, heterozygous Mutant 6, 30 min
Experimental: as §1, §2, §3, §4, §5, §6

[7] = molecular target: ALS enzyme extracted from Mutant 10 (heterozygous); assay: ALS enzyme assay, heterozygous Mutant 10; details: for IC50: ALS of heterozygous Mutant 10, read-out: ID50% (the source's name); for resistance group, Enzyme Assay: Mutant 10, groups Strong, Intermediate, Weak, Zero; for Fold Increase: fold increase in resistance vs wild type, heterozygous Mutant 10, 30 min
Experimental: as §1, §2, §3, §4, §5, §6

[8] = molecular target: ALS enzyme extracted from Mutant 1 (heterozygous); assay: ALS enzyme assay, heterozygous Mutant 1; details: for IC50: ALS of heterozygous Mutant 1, read-out: ID50% (the source's name); for resistance group, Enzyme Assay: Mutant 1, groups Strong, Intermediate, Weak, Zero; for Fold Increase: fold increase in resistance vs wild type, heterozygous Mutant 1, 30 min
Experimental: as §1, §2, §3, §4, §5, §6

[9] = molecular target: ALS enzyme extracted from Mutant 2 (heterozygous); assay: ALS enzyme assay, heterozygous Mutant 2; details: for IC50: ALS of heterozygous Mutant 2, read-out: ID50% (the source's name); for resistance group, Enzyme Assay: Mutant 2, groups Strong, Intermediate, Weak, Zero; for Fold Increase: fold increase in resistance vs wild type, heterozygous Mutant 2, 30 min
Experimental: as §1, §2, §3, §4, §5, §6

[10] = molecular target: ALS enzyme extracted from Mutant 7 (heterozygous); assay: ALS enzyme assay, heterozygous Mutant 7; details: for IC50: ALS of heterozygous Mutant 7, read-out: ID50% (the source's name); for resistance group, Enzyme Assay: Mutant 7, groups Strong, Intermediate, Weak, Zero; for Fold Increase: fold increase in resistance vs wild type, heterozygous Mutant 7, 30 min
Experimental: as §1, §2, §3, §4, §5, §6

[11] = molecular target: ALS extracted from leaves of MUTANT 2 (homozygous); assay: ALS enzyme assay, homozygous Mutant 2; details: for IC50: ALS of homozygous Mutant 2, read-out: ID50% Mutant; for Fold Increase: fold increase in resistance vs wild type, homozygous Mutant 2, 30 min
Experimental: as §2, §3, §4, §5, §6

[12] = molecular target: ALS (acetolactate synthase), Wild type; assay: ALS enzyme assay, wild-type control; details: read-out: ID50% (the source's name)
Experimental: as §1, §2, §3, §4, §5, §6

Compound | IC50 [1] | resistance group, Enzyme Assay [1] | Fold Increase [1] | IC50 [2] | resistance group, Enzyme Assay [2] | Fold Increase [2] | IC50 [3] | resistance group, Enzyme Assay [3] | Fold Increase [3] | IC50 [4] | resistance group, Enzyme Assay [4] | Fold Increase [4] | IC50 [5] | IC50 [6] | resistance group, Enzyme Assay [6] | Fold Increase [6] | IC50 [7] | resistance group, Enzyme Assay [7] | Fold Increase [7] | IC50 [8] | also measured
CC(C)C1(C)N=C(c2ncccc2C(=O)O)NC1=O (stereo not shown) [Imazapyr, imazapyr] | > 1000 µM | Strong | >333 | 4 µM | Weak | 1 | 300 µM | Strong | 100 | > 1000 µM | Strong | >333 | > 1000 µM | 5 µM | Intermediate | 2 | 35 µM | Strong | 12 | > 1000 µM | Fold Increase ([5]; 30 min): >333; resistance group, Enzyme Assay [8]: Strong; Fold Increase [8]: >333; IC50 [9]: 540 µM; resistance group, Enzyme Assay [9]: Strong; Fold Increase [9]: 180; IC50 [10]: 10 µM; resistance group, Enzyme Assay [10]: Intermediate; Fold Increase [10]: 3; IC50 [11]: 675 µM; Fold Increase [11]: 225; IC50 ([12]; herbicide concentration giving 50% inhibition of ALS activity): 3 µM
COC(=O)c1sccc1S(=O)(=O)NC(=O)Nc1nc(C)nc(OC)n1 [Thiacarburon, thiacarburon] | 0.04 µM | Weak | 1 | 0.085 µM | Weak | 2 | 0.34 µM | Intermediate | 8 | 0.045 µM | Weak | 1 | 0.04 µM | 0.045 µM | Weak | 1 | 0.39 µM | Intermediate | 9 | 0.055 µM | Fold Increase [5]: nil; resistance group, Enzyme Assay [8]: Weak; Fold Increase [8]: 1; IC50 [9]: 0.32 µM; resistance group, Enzyme Assay [9]: Intermediate; Fold Increase [9]: 8; IC50 [10]: 0.025 µM; resistance group, Enzyme Assay [10]: Zero; Fold Increase [10]: 1; IC50 [11]: 0.36 µM; Fold Increase [11]: 8.5; IC50 [12]: 0.0425 µM
